Source: PMC8869400, “Inhibition Mechanism of Components Isolated from Morus alba Branches on Diabetes and Diabetic Complications via Experimental and Molecular Docking Analyses” (Antioxidants, 2022)
≈ marks a conversion by molar mass, not a printed value. Where two headings read alike, the source gives them in different places.

Tests used:
[1] = In vitro assay for peroxynitrite scavenging activity (DHR 123); details: mean ± SD of triplicate experiments; for IC50: read-out: ONOO− IC50
Experimental: The ONOO^− scavenging activity assay was conducted using a previously published method that involved measuring highly fluorescent rhodamine 123, which is rapidly converted from non-fluorescent DHR 123 in the presence of ONOO^−. Briefly, the rhodamine buffer (pH 7.4) was composed of 100 μM DTPA and 5 μM DHR 123. The assay buffer was prepared prior to use and placed on ice. The fluorescence intensity of the oxidized DHR 123 in the background and sample was measured 30 s after treatment with (and without) 200 μM authentic ONOO^−. The fluorescence intensity of the oxidized DHR 123 was measured using a VERSA MAX GEMINI XPS fluorescence microplate reader (Molecular Devices., CA, USA) at excitation and emission wavelengths of 485 and 530 nm, respectively. L-Penicillamine was used as the positive control.

[2] = test system: AGE formation; experiment: In vitro assay for inhibition of AGE formation (BSA-fructose/glucose fluorescence); assay type: biochemical; details: for IC50: read-out: AGEs IC50
Experimental: The inhibition of AGE formation was evaluated using a modification of a previously published method. To prepare the reaction solution, 10 mg/mL of bovine serum albumin was added to 0.2 M fructose, 0.2 M glucose, and […] sodium azide. The reaction solution was mixed with various concentrations of the samples dissolved in 10% DMSO until the total volume was 1 mL. After an 8-day incubation at 37 °C, the fluorescence intensity of the reaction products was measured using a VERSA MAX GEMINI XPS fluorescence microplate reader (Molecular Devices) with excitation and emission wavelengths of 350 nm and 450 nm, respectively. After obtaining the results, we determined the IC50 values as the result on day 4. Aminoguanidine hydrochloride was used as the positive control.

[3] = biological target: T1, PTP1B (Homo sapiens, UniProt P18031); experiment: In vitro assay for PTP1B inhibitory activity (pNPP); assay type: biochemical
T1 construct: purchased Enzo Life Sciences
T1 sequence (P18031 1-435): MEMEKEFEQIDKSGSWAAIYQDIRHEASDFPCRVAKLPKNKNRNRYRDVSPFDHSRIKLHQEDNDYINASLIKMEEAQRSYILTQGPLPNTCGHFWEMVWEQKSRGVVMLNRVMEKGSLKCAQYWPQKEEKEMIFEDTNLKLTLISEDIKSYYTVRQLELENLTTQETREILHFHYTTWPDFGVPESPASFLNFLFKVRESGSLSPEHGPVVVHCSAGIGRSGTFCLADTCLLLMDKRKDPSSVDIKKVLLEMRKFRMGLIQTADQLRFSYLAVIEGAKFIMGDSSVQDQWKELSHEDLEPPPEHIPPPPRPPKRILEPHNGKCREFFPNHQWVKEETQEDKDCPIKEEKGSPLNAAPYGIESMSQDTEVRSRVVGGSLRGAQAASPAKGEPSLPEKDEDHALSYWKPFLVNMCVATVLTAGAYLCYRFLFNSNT

[4] = biological target: T1, PTP1B; details: at 20 μg/mL; ref 43 (Zhao et al.); cited from earlier work
[5] = biological target: T2, α-glucosidase (Saccharomyces cerevisiae, UniProt P53341); experiment: Kinetic study for α-glucosidase inhibition (Lineweaver–Burk and Dixon plots); assay type: biochemical; details: for α-Glucosidase Inhibition Mode: determined using Lineweaver–Burk plots
T2 construct: purchased Sigma-Aldrich Chemical Company
T2 sequence (P53341 whole entry): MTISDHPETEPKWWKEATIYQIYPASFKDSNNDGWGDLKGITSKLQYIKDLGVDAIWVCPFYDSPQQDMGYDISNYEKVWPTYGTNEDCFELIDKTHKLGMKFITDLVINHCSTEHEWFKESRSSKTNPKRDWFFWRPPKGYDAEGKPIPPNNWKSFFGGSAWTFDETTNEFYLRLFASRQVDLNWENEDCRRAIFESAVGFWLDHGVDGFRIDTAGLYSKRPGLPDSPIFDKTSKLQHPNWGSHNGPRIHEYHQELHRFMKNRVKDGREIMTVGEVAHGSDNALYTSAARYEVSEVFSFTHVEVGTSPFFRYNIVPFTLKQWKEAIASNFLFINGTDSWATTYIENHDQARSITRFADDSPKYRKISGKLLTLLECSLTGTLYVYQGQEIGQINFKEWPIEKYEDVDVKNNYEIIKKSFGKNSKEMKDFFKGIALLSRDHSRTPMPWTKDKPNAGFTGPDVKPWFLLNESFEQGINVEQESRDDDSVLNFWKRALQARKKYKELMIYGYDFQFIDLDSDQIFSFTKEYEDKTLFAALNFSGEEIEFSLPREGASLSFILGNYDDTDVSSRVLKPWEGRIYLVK

[6] = biological target: T1, PTP1B; experiment: Kinetic study for PTP1B inhibition (Lineweaver–Burk and Dixon plots); assay type: biochemical; details: for PTP1B Inhibition Mode: determined using Lineweaver–Burk plots
[7] = mean ± SD of triplicate experiments, result on day 4
[8] = mean ± SD of triplicate experiments, read-out: PTP1B IC50
[9] = determined using Dixon plots, read-out: α-Glucosidase Ki
[10] = determined using Dixon plots, read-out: PTP1B Ki

| SMILES | IC50 [1] | IC50 [2, 7] | IC50 [3, 8] | Ki [5, 9] | α-Glucosidase Inhibition Mode [5] | other results |
| --- | --- | --- | --- | --- | --- | --- |
| O=c1cc(-c2ccc(O)cc2O)oc2cc(O)cc(O)c12 [Norartocarpetin (6), Norartocarpetin] | 3.01 ± 0.15 µM | 77.3 ± 9.58 µM | > 100 µM | 19.9 µM | Mixed | PTP1B-inhibitory activity ([3]; at 100 μg/mL): no PTP1B-inhibitory activity; IC50 ([3]; mean ± SD of triplicate experiments, read-out: IC50 Values PTP1B): > 349 µM; PTP1B inhibition [4]: 20% |
| O=C1c2c(O)cc(O)cc2O[C@H](c2ccc(O)cc2O)[C@H]1O [Dihydromorin (3), Dihydromorin] | 2.26 ± 0.12 µM | 118 ± 7.89 µM | 180 µM | 10.2 µM | Mixed |  |
| CC(C)=CCc1c(-c2ccc(O)cc2O)oc2c(CC=C(C)C)c(O)cc(O)c2c1=O [Kuwanon C (1), Kuwanon C] | 12.9 ± 0.68 µM | > 100 µM | 41.4 ± 1.64 µM | 6.85 µM | Mixed | inhibitory activity on AGE formation ([2]; at 100 μg/mL): no inhibitory activity on AGE formation; Ki [6, 10]: 39.4 µM; PTP1B Inhibition Mode [6]: Non-competitive; PTP1B inhibition [4]: 58% |
| Oc1cc(O)cc(-c2cc3ccc(O)cc3o2)c1 [Moracin M (2), Moracin M] | 1.08 ± 0.04 µM | 2.1 ± 0.22 µM | 333 ± 20.5 µM | 3.32 µM | Mixed |  |
| CC(C)(S)[C@H](N)C(=O)O [L-Penicillamine, reference compound] | 6.69 ± 0.52 µM |  |  |  |  | IC50 Values ONOO− [1]: 1.37 ± 0.19 µg/mL (≈ 9.18 µM) |
| Cl.N=C(N)NN [Aminoguanidine, Aminoguanidine hydrochloride, reference compound] |  | 890 ± 70.2 µM |  |  |  | IC50 Values AGEs [2, 7]: 52.62 ± 6.70 µg/mL |
| Oc1cc(O)cc(/C=C/c2ccc(O)cc2O)c1 [Oxyresveratrol (5), Oxyresveratrol] | 2.37 ± 0.21 µM | 7.56 ± 0.15 µM |  |  | Mixed | Ki [6]: 2.16 µM; IC50 ([3]; PTP1B IC50, mean ± SD of triplicate experiments): 2.85 ± 0.3 µM; Ki [5]: 1.14 µM |
| CC(C)=CCc1c(-c2ccc(O)cc2O)oc2c(C3C=C(C)CC(c4ccc(O)cc4O)C3C(=O)c3ccc(O)cc3O)c(O)cc(O)c2c1=O (stereo not drawn) [Kuwanon G (7), Kuwanon G] | 6.35 ± 0.36 µM | 69.1 ± 1.49 µM | 16.2 ± 0.29 µM |  | Mixed | Ki [6, 10]: 12.4 µM; PTP1B Inhibition Mode [6]: Mixed; PTP1B Inhibition Mode ([6]; listed as kuwanon G (7)): mixed-type; Ki [5]: 2.03 µM |
